What was measured:
HepG2 = assay: Cytotoxicity against human HepG2 cells assessed as reduction in cell viability after 48 hrs by CCK8 assay; format: functional, cell-based; conditions: HepG2, 48 h
[1] = Cytotoxicity against human LO2 cells assessed as reduction in cell viability after 48 hrs by CCK8 assay; format: cell-based; conditions: L02, 48 h

Structure (SMILES) | IC50 (HepG2; read-out: pIC50 (converted)) [µM] | IC50 (HepG2; read-out: IC50) [µM] | IC50 [1] [µM]
CC(=O)N1c2ccccc2CCc2ccc(N)cc21 | > 158 |  | 
c1ccc2c(c1)Nc1ccccc1O2 [PHENOXAZINE] | 204 |  | 
COC1=Cc2ccccc2N(C(N)=O)c2ccccc21 | > 158 |  | 
c1ccc2c(c1)CCc1ccccc1N2 | > 158 |  | 
CN1CCN(C2=Nc3cc(Cl)ccc3Nc3ccccc32)CC1 [CLOZAPINE] | 47.9 |  | 
OCCN1CCN(CCCN2c3ccccc3Sc3ccc(C(F)(F)F)cc32)CC1 [FLUPHENAZINE] | 4.37 | 4.4 | > 160
COC1=Cc2ccccc2Nc2ccccc21 | 70.8 |  | 
NC(=O)N1c2ccccc2CC(=O)c2ccccc21 [OXCARBAZEPINE] | 19.5 |  | > 160
CCN1c2ccccc2CCc2ccc(Cl)cc21 | > 158 |  | 
OCCN1CCN(CCCN2c3ccccc3Sc3ccc(Cl)cc32)CC1 [PERPHENAZINE] | 16.2 |  | > 160
CC(C(=O)O)c1ccc2c(c1)[nH]c1ccc(Cl)cc12 (stereo unspecified) [CARPROFEN] | 166 |  | 
C1=Cc2ccccc2Nc2ccccc21 [IMINOSTILBENE] | > 158 |  | 
NC(=O)N1c2ccccc2C=Cc2ccccc21 [CARBAMAZEPINE] | > 158 |  | 
CC(=O)N1c2ccccc2CCc2ccc(Cl)cc21 | > 158 |  | 
CC(CN(C)C)CN1c2ccccc2Sc2ccccc21 (stereo unspecified) [METHYLPROMAZINE] | 61.7 |  | 
c1ccc2c(c1)[nH]c1cccc(OCC3CO3)c12 (stereo unspecified) | 17 |  | > 160
O=C(Cl)N1c2ccccc2C=Cc2ccccc21 | 33.9 |  | 
CC(CN1c2ccccc2S(=O)(=O)c2ccccc21)N(C)C (stereo unspecified) | > 158 |  | 
COc1ccccc1OCCNCC(O)COc1cccc2[nH]c3ccccc3c12 (stereo unspecified) [CARVEDILOL] | 17.4 |  | 85
Oc1cccc2[nH]c3ccccc3c12 | 123 |  | 
